Results: patent publication US10189854B2, “Substituted pyrimidine compounds” (Grünenthal GmbH, priority 2014, dated 2019)

The compounds below were run against human PDE4B1 (Homo sapiens (Human), UniProt Q07343) (assay: cAMP HTRF assay to determine the activity of hPDE4B1). Details: IC50 inhibition of PDE4B; human recombinant PDE4B1, cAMP HTRF assay.
Assay type: biochemical
Procedure, shortened: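 Recombinant human PDE4B1 expressed in Sf9 cells (4.8 U) was incubated with 40 nM cAMP for 30 min at room temperature in Tris buffer, pH 7.8, with MgCl2, DTT and Tween 20. HTRF detection of remaining cAMP followed, with 1 mM IBMX stop, read 60 min later as the 665/620 nm ratio. Results are % inhibition versus control.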

human PDE4B1, sequence (Q07343 whole entry): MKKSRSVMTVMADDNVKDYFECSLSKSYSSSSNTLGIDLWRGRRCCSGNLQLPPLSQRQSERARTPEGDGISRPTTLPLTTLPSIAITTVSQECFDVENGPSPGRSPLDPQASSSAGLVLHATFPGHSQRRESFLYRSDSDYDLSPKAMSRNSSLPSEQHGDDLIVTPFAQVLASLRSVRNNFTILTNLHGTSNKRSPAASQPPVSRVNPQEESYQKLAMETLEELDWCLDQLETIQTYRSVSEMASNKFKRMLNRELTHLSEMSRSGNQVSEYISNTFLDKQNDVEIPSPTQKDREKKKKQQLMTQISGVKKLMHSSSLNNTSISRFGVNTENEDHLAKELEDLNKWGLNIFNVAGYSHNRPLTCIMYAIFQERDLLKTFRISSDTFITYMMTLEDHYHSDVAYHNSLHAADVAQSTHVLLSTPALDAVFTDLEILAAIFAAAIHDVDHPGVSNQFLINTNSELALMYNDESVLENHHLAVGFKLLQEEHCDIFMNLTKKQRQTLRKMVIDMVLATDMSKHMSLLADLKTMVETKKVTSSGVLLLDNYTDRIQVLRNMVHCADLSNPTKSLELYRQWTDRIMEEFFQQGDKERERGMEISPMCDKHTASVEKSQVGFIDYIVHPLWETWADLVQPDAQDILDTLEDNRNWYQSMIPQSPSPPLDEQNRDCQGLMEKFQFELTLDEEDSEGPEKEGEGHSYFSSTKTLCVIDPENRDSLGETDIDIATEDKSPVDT

First: O=C(c1ccc2c(c1)N(c1ncc(-c3cccc(F)c3)cn1)CC21CC1)N1CCOCC1 [Compound 57, [1-[5-(3-Fluorophenyl)-pyrimidin-2-yl]-spiro[1,2-dihydro-indole-3,1′-cyclopropane]-6-yl]-morpholin-4-yl-methanone]
Second: Cc1cccc(F)c1-c1cnc(N2CC3(CC3)c3ccc(C(=O)N4CCOCC4)cc32)nc1 [Compound 69, [1-[5-(2-Fluoro-6-methyl-phenyl)-pyrimidin-2-yl]-spiro[1,2-dihydro-indole-3,1′-cyclopropane]-6-yl]-morpholin-4-yl-methanone]
The IC50 of the first is lower: less than 0.1 µM for the first, 0.1 to 1 µM for the second.

Compared with O=C(c1ccc2c(c1)N(c1ncc(-c3cc(Cl)ccc3F)cn1)CC21CC1)N1CCOCC1 [Compound 58, [1-[5-(5-Chloro-2-fluoro-phenyl)-pyrimidin-2-yl]-spiro[1,2-dihydro-indole-3,1′-cyclopropane]-6-yl]-morpholin-4-yl-methanone], O=C(c1ccc2c(c1)N(c1ncc(-c3cc(OC(F)(F)F)ccc3F)cn1)CC21CC1)N1CCOCC1 [Compound 67, [1-[5-(2-Fluoro-5-(trifluoromethyloxy)-phenyl]-pyrimidin-2-yl]-spiro[1,2-dihydro-indole-3,1′-cyclopropane]-6-yl]-morpholin-4-yl-methanone] is higher in IC50: less than 0.1 µM for the first, 0.1 to 1 µM for the second.

O=C(c1ccc2c(c1)N(c1ncc(-c3ccccc3)cn1)CC21CC1)N1CCCC1 [Compound 59, [1-(5-Phenyl-pyrimidin-2-yl)-spiro[1,2-dihydro-indole-3,1′-cyclopropane]-6-yl]-pyrrolidin-1-yl-methanone] and CN1CCN(C(=O)c2ccc3c(c2)N(c2ncc(-c4ccccc4F)cn2)CC32CC2)CC1 [Compound 60, [1-[5-(2-Fluorophenyl)-pyrimidin-2-yl]-spiro[1,2-dihydro-indole-3,1′-cyclopropane]-6-yl]-(4-methyl-piperazin-1-yl)-methanone] cannot be ordered by IC50: less than 0.1 µM for the first, less than 0.1 µM for the second.

CNC(=O)c1ccc2c(c1)N(c1ncc(-c3ccccc3F)cn1)CC21CC1 [Compound 61, 1-[5-(2-Fluorophenyl)-pyrimidin-2-yl]-N-methyl-spiro[1,2-dihydro-indole-3,1′-cyclopropane]-6-carboxylic acid amide] and COCCCNC(=O)c1ccc2c(c1)N(c1ncc(-c3ccccc3F)cn1)CC21CC1 [Compound 75, 1-[5-(2-Fluorophenyl)-pyrimidin-2-yl]-N-(3-methoxy-propyl)-spiro[1,2-dihydro-indole-3,1′-cyclopropane]-6-carboxylic acid amide] fall in the same range of IC50: 0.1 to 1 µM for the first, 0.1 to 1 µM for the second.

O=C(c1ccc2c(c1)N(c1ncc(-c3ccccc3C3CC3)cn1)CC21CC1)N1CCOCC1 [Compound 62, [1-[5-(2-Cyclopropyl-phenyl)-pyrimidin-2-yl]-spiro[1,2-dihydro-indole-3,1′-cyclopropane]-6-yl]-morpholin-4-yl-methanone] and O=C(c1ccc2c(c1)N(c1ncc(-c3ccccc3F)cn1)CC21CC1)N1CCN(C2CC2)CC1 [Compound 66, (4-Cyclopropyl-piperazin-1-yl)-[1-[5-(2-fluorophenyl)-pyrimidin-2-yl]-spiro[1,2-dihydro-indole-3,1′-cyclopropane]-6-yl]-methanone] fall in the same range of IC50: 1 to 10 µM for the first, 1 to 10 µM for the second.

NC(=O)c1ccc(-c2cnc(N3CC4(CC4)c4ccc(C(=O)N5CCOCC5)cc43)nc2)cc1 [Compound 63, 4-[2-[6-(Morpholine-4-carbonyl)-spiro[1,2-dihydro-indole-3,1′-cyclopropane]-1-yl]-pyrimidin-5-yl]-benzamide] and CN(C)C(=O)c1ccc(-c2cnc(N3CC4(CC4)c4ccc(C(=O)N5CCOCC5)cc43)nc2)c(F)c1 [Compound 65, 3-Fluoro-N,N-dimethyl-4-[2-[6-(morpholine-4-carbonyl)-spiro[1,2-dihydro-indole-3,1′-cyclopropane]-1-yl]-pyrimidin-5-yl]-benzamide] cannot be ordered by IC50: less than 0.1 µM for the first, less than 0.1 µM for the second.

First: O=C(c1ccc2c(c1)N(c1ncc(-c3ccccc3F)cn1)CC21CC1)N1CC2(COC2)C1 [Compound 64, [1-[5-(2-Fluorophenyl)-pyrimidin-2-yl]-spiro[1,2-dihydro-indole-3,1′-cyclopropane]-6-yl]-(2-oxa-6-azaspiro[3.3]heptan-6-yl)-methanone]
Second: O=C(c1ccc2c(c1)N(c1ncc(-c3ccccc3F)cn1)CC21CC1)N1CCC2(COC2)C1 [Compound 68, [1-[5-(2-Fluorophenyl)-pyrimidin-2-yl]-spiro[1,2-dihydro-indole-3,1′-cyclopropane]-6-yl]-(2-oxa-7-azaspiro[3.4]octan-7-yl)-methanone]
The IC50 of the first is higher: 1 to 10 µM for the first, 0.1 to 1 µM for the second.

First: O=C(c1ccc2c(c1)N(c1ncc(-c3ccc(F)cc3F)cn1)CC21CC1)N1CCNCC1 [Compound 71, [1-[5-(2,4-Difluoro-phenyl)-pyrimidin-2-yl]-spiro[1,2-dihydro-indole-3,1′-cyclopropane]-6-yl]-piperazin-1-yl-methanone]
Second: COc1ccc(F)c(-c2cnc(N3CC4(CC4)c4ccc(C(=O)N5CCNCC5)cc43)nc2)c1 [Compound 73, [1-[5-(2-Fluoro-5-methoxy-phenyl)-pyrimidin-2-yl]-spiro[1,2-dihydro-indole-3,1′-cyclopropane]-6-yl]-piperazin-1-yl-methanone]
The IC50 of the first is higher: 0.1 to 1 µM for the first, less than 0.1 µM for the second. The second is the more potent here.

First: O=C(c1ccc2c(c1)N(c1ncc(-c3cc(OC(F)(F)F)ccc3F)cn1)CC21CC1)N1CCNCC1 [Compound 72, [1-[5-[2-Fluoro-5-(trifluoromethyloxy)-phenyl]-pyrimidin-2-yl]-spiro[1,2-dihydro-indole-3,1′-cyclopropane]-6-yl]-piperazin-1-yl-methanone]
Second: O=C(c1ccc2c(c1)N(c1ncc(-c3ccccc3F)cn1)CC21CC1)N1CCC2(CNC2)C1 [Compound 74, (2,6-Diazaspiro[3.4]octan-6-yl)-[1-[5-(2-fluorophenyl)-pyrimidin-2-yl]-spiro[1,2-dihydro-indole-3,1′-cyclopropane]-6-yl]-methanone]
The IC50 of the first is lower: less than 0.1 µM for the first, 1 to 10 µM for the second.

N#CCCN1CCN(C(=O)c2ccc3c(c2)N(c2ncc(-c4ccccc4F)cn2)CC32CC2)CC1 [Compound 76, 3-[4-[1-[5-(2-Fluorophenyl)-pyrimidin-2-yl]-spiro[1,2-dihydro-indole-3,1′-cyclopropane]-6-carbonyl]-piperazin-1-yl]-propionitrile] and CN(C)[C@@H]1CCN(C(=O)c2ccc3c(c2)N(c2ncc(-c4ccccc4F)cn2)CC32CC2)C1 [Compound 77, [(3R)-3-Dimethylamino-pyrrolidin-1-yl]-[1-[5-(2-fluorophenyl)-pyrimidin-2-yl]-spiro[1,2-dihydro-indole-3,1′-cyclopropane]-6-yl]-methanone] fall in the same range of IC50: 0.1 to 1 µM for the first, 0.1 to 1 µM for the second.

First: O=C(NCCN1CCCC1=O)c1ccc2c(c1)N(c1ncc(-c3ccccc3F)cn1)CC21CC1 [Compound 78, 1-[5-(2-Fluorophenyl)-pyrimidin-2-yl]-N-[2-(2-oxo-pyrrolidin-1-yl)-ethyl]-spiro[1,2-dihydro-indole-3,1′-cyclopropane]-6-carboxylic acid amide]
Second: O=C(c1ccc2c(c1)N(c1ncc(-c3ccccc3F)cn1)CC21CC1)N1CCCC2(COC2)C1 [Compound 79, [1-[5-(2-Fluorophenyl)-pyrimidin-2-yl]-spiro[1,2-dihydro-indole-3,1′-cyclopropane]-6-yl]-(2-oxa-8-azaspiro[3.5]nonan-8-yl)-methanone]
The IC50 of the first is lower: 0.1 to 1 µM for the first, 1 to 10 µM for the second.
